Measured values as given in US8372408B2, “Use of Phaeodactylum algae extract for depigmenting the skin” (LVMH Recherche, priority 2007, dated 2013).
Residues, ends and D or L forms follow the SMILES beside them. *: point of attachment. Cbz = O=C(OCc1ccccc1)*

Experiments:
[1] = system: tyrosinase of MNT-1 melanocytes; assay: Measurement of the tyrosinase (dopa-oxidase) activity in lyzates of treated MNT1 cells; format: cell-based, human; conditions: for Tyrosinase activity at 72 hours: dopa-oxidase activity at 475 nm, MNT1 lyzed 72 hours after treatment, palmitic or linoleic acid 25 μM, Phaeodactylum 5 μg/ml, Mg132 120 nM where stated
Procedure: 2.1D: Measurement of the tyrosinase activity
The assay is based on measuring the dopa-oxidase activity of tyrosinase. The principle of the assay is based on the detection of dopachrome, which absorbs at 475 nm on FLUOstar (BMG)
Materials: • Lysis buffer • Substrate: L-DOPA (Sigma, D-9628, MW 197.2) at 10 mM in PBS, prepared extemporaneously due to the autoxidation of L-Dopa.
Human melanocytes in culture were treated with 25 μM of linoleic acid (±120 nM Mg132) or 25 μM of palmitic acid (±120 nM Mg132) or 5 μg/ml of Phaeodactylum (±120 nM Mg132) in MNT1 medium containing 1% BSA, 50 μM vitamin E and 1 mM vitamin C. The melanocytes were recovered and lyzed 72 hours after treatment. 50 μg of extract are then incubated with 1 mM of […] for one hour at 37° C. Measurement of the tyrosinase activity is performed at 475 nm every 2 minutes using a microplate reader thermostatically maintained at 37° C.
The Dopa-oxidase activity is obtained as OD/min/mg of protein. The blank is prepared with lysis buffer in the presence of L-DOPA.

[2] = target: T1, proteasome (chymotrypsin-like activity) of MNT1 cells (Homo sapiens, UniProt P28074); assay: Proteasome LLVY (chymotrypsin-like) activity assay on lyzates of treated MNT1 cells; format: cell-based; conditions: for Proteasome activity at 72 hours, Chymotrypsin-like: MNT1 cells lyzed 72 hours after treatment, palmitic or linoleic acid 25 μM, Phaeodactylum 5 μg/ml, Mg132 120 nM where stated; for chymotrypsin-like peptidase activity of the proteasome, change in words: 72 hours after addition, MNT-1 melanocytes, FIG. 1A
T1 construct: introduce in duplicate a fixed volume of cell lyzate; endogenous in cells; host or cells: MNT1 human melanocyte line (lysate)
T1 sequence (P28074 60-263): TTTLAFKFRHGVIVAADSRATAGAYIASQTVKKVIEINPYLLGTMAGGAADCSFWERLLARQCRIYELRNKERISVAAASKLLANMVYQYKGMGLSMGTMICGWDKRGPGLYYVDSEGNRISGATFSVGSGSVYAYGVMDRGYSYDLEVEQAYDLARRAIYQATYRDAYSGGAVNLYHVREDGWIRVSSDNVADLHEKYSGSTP
Procedure: (§1) 2.1 Treatment of MNT1 Cells (Human Melanocyte Cell Lines) in Order to Assay the Proteasome and Tyrosinase Activities MNT1, 10^6 cells/dish 35 mm in diameter, in triplicate
(§2) Treatment on D1 • Linoleic acid 25 μM • Palmitic acid 25 μM • Phaeodactylum 5 μg/ml +1% BSA+Vitamin E 50 μM+Vitamin C 1 mM • Linoleic acid 25 μM • Palmitic acid 25 μM • Phaeodactylum 5 μg/ml Stirring with a magnetic bar at 37° C. for 1 hour • 2nd treatment on D4 +Cycloheximide 1 μg/ml (protein synthesis inhibitor)
(§3) +120 nM Mg132 for the assay of the tyrosinase activity. • Preparation of the lyzates after 4 hours 2 rinses with PBS (phosphate-buffered saline)
(§4) On a bed of ice; recovery in 150 μl of lysis buffer by scraping.
(§5) Freezing at […]. • Protein assay via the Bradford method • Proteasome activity assay The cells are rinsed twice with PBS and each peptidase activity of the proteasome is then determined by using a fluorogenic peptide substrate specific for each of the activities, in the presence and in the absence of a specific proteasome inhibitor, MG 132 (Leu-Leu-Leucinal). The peptide substrate products are the following: Leu-Leu-Val-Tyr-amc (LLVY-amc) for the chymotrypsin-like activity, Leu-Leu-Glu-na (LLE-na) for the post-glutamic hydrolase activity and Leu-Ser-Thr-Arg-amc (LSTR-amc) for the trypsin-like activity. The principle of the assay consists in monitoring over time the increase in fluorescence due to the release of the fluorophores aminomethylcoumarin or β-naphthylamine from the fluorogenic peptides. […]
a) LLVY activity (chymotrypsin-like) a.1—Principle • Proteasome (LLVY activity • (chymotrypsin-like)) N-Succinyl-LLVY-MCA→N-Succinyl-LLVY+MCA fluorescent Reading with a spectrofluorimeter at an excitation wavelength of 350 nm and an emission wavelength of 440 nm.
The process is performed as follows: • Into a 96-well plate, introduce in duplicate a fixed volume of cell lyzate (determined from the lowest protein concentration of the samples, which should correspond to 20 μg of protein) and make up to 100 μl with TRIS buffer. • Add 100 μl of LLVY-MCA substrate prediluted to 25 μM in the TRIS buffer (12.5 μM final). • take the spectrofluorimeter readings at an excitation wavelength of 355 nm and an emission wavelength of 460 nm with a gain of 40, every 2 minutes for 30 minutes.
The raw results are expressed in F.U./minute, F.U. denoting the values supplied by the machine, expressed in fluorescence units.
The assay is performed on 200 μl of reaction volume containing a volume V of cell lyzate set as a function of the protein concentrations of the lyzates.
From the calibration range, the activity may be expressed as follows, in pmol of MCA released/minute/mg of protein: […]
(§6) For the assay of the proteasome activities, the cells were lyzed at 72 hours after the cell treatment, and the protein concentration was determined.

[3] = target: T2, proteasome (trypsin-like activity) of MNT1 cells (Homo sapiens, UniProt Q99436); assay: Proteasome LSTR (trypsin-like) activity assay on lyzates of treated MNT1 cells; format: cell-based; conditions: for Proteasome activity at 72 hours, Trypsin-like: MNT1 cells lyzed 72 hours after treatment, palmitic or linoleic acid 25 μM, Phaeodactylum 5 μg/ml, Mg132 120 nM where stated
T2 construct: introduce in duplicate a fixed volume of cell lyzate; endogenous in cells; host or cells: MNT1 human melanocyte line (lysate)
T2 sequence (Q99436 44-277): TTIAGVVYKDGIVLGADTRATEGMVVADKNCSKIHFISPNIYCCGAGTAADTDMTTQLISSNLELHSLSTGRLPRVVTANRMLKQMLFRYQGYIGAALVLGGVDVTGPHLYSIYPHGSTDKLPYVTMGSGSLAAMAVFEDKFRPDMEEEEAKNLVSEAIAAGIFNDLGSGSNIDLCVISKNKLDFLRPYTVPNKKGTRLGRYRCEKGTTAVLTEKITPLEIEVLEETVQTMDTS
Procedure: as §1, §2, §3, §4, §5
Proteasome (LSTR Activity (Trypsin-Like)) Nt Boc LSTR-MCA→Nt Boc LSTR+MCA fluorescent Reading on a spectrofluorimeter at an excitation wavelength of 350 nm and an emission wavelength of 440 nm. c.4—Assay of the LSTR Activity • In a 96-well plate, introduce in duplicate a fixed volume of cell lyzate (determined from the lowest protein concentration of the samples, which should correspond to 50 μg of protein) and make up to 100 μl with TRIS buffer. • Add 100 μl of LSTR-MCA substrate prediluted to 80 μM in the TRIS buffer (40 μM final). • In parallel, check that it is indeed the proteasome activity by testing the inhibitor Mg132. • Add to 50 μg of protein 10 μl of solution of Mg132 prediluted to 400 μM in the TRIS buffer (20 μM final) and make up to 100 μl with TRIS buffer. Next, add 100 μl of LSTR substrate prediluted to 80 μM in the TRIS buffer (40 μM final). • Take the spectrofluorimeter readings at an excitation wavelength of 355 nm and an emission wavelength of 460 nm at a gain of 30, every 2 minutes, for 30 minutes.
The raw results are expressed in F.U./min. […]
as §6

For `CC(C)C[C@@H](C=O)NC(=O)[C@H](CC(C)C)NC(=O)[C@H](CC(C)C)NC(=O)OCc1ccccc1` [Control + Mg132, Z-Leu-Leu-Leu-CHO] (Cbz-Leu-Leu-Leu-aldehyde), the “Tyrosinase activity at 72 hours” value [1] was 18.35 ± 1.55 OD/min, the “Proteasome activity at 72 hours, Chymotrypsin-like” value [2] was 3 ± 0.3 pmol/min/mg and the “Proteasome activity at 72 hours, Trypsin-like” value [3] was 627 ± 282 pmol/min/mg.

With `CCCCC/C=C\C/C=C\CCCCCCCC(=O)O` [Linoleic acid] the “tyrosinase activity, change in words” value ([1]; 72 hours after treatment of MNT-1 melanocytes, FIG. 5) was “significant decrease”, the “Tyrosinase activity at 72 hours” value [1] was 9.65 ± 2 OD/min and the “chymotrypsin-like peptidase activity of the proteasome, change in words” value [2] was “increase and do so significantly”. For the same compound, the “Proteasome activity at 72 hours, Chymotrypsin-like” value [2] was 6.3 ± 0.37 pmol/min/mg, the “trypsin-like peptidase activity of the proteasome, change in words” value ([3]; 72 hours after addition, MNT-1 melanocytes, FIG. 1C) was “increase and do so significantly” and the “Proteasome activity at 72 hours, Trypsin-like” value [3] was 2848 ± 424 pmol/min/mg.

With `CCCCCCCCCCCCCCCC(=O)O` [Palmitic acid] the “Tyrosinase activity at 72 hours” value [1] was 18.75 ± 1.9 OD/min, the “chymotrypsin-like peptidase activity of the proteasome, change in words” value [2] was “reduced” and the “Proteasome activity at 72 hours, Chymotrypsin-like” value [2] was 3 ± 0.37 pmol/min/mg. The “Proteasome activity at 72 hours, Trypsin-like” value [3] was 1998 ± 261 pmol/min/mg.
